Measurements: the METLIN SMRT retention time set (Domingo-Almenara et al. 2019)

Assay: gradient 5% acetonitrile 3 min, to 50% in 2 min, to 85% in 15 min, held 3 min, 100 µL/min
Details: column: Zorbax Extend-C18 2.1 x 50 mm; eluents: water / acetonitrile, 0.1% formic acid
Outline: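 Over 3 months, pure standards in mixtures of ~100 molecules were run by HPLC coupled to a quadrupole time-of-flight mass spectrometer in positive and negative ionization mode. The column was a Zorbax Extend-C18 (2.1 × 50 mm, 1.8 μm) at 100 μL/min, eluted with water and acetonitrile each holding 0.1% formic acid, with 40 μL dead and 900 μL dwell volumes. Retention time was determined from adduct peaks chosen by software and checked manually.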

RP-LC retention time | SMILES
642 s | COc1ccc(OC)c(NC(=O)CN2CCc3[nH]c4c(C)c(C)ccc4c(=O)c3C2)c1
812 s | Cc1c(C(=O)N(C)C)cc(-c2ccccc2)n1C
752 s | O=c1c2c(CO)c(-c3ccccc3)nn2ccn1CCOc1ccccc1
706 s | CN1C(=O)CSc2cnn(CC(=O)N3CCN(c4ccc(F)cc4)CC3)c(=O)c21
966 s | Cc1oc(C2CCN(S(=O)(=O)c3ccc(C(C)C)cc3)CC2)nc1C(=O)N(C)C
756 s | Cn1nc(C(=O)N2CCCC(C(=O)Nc3ccccc3)C2)c2c1CCN(C(=O)c1cccc(F)c1)C2 (configuration not stated)
769 s | O=C(CSc1nnc(-c2csc3c2CCCC3)o1)Nc1ccccc1
848 s | Cc1nc(SCC(=O)NCc2ccccc2Cl)cc(-c2ccccn2)n1
1190 s | CCCN1C(=O)c2cc(S(=O)(=O)N(C)Cc3ccccc3)ccc2Oc2cccnc21
853 s | CCOC(=O)Cc1ccc(NC(=O)NC2CCN(c3ccc(F)c(C)c3)C2=O)cc1 (configuration not stated)
835 s | CCN(CC)S(=O)(=O)c1ccc2c(c1)N(CC(=O)N1CCCC1)C(=O)C1CCCCN21 (configuration not stated)
771 s | Cn1c(=O)c2nc(S(=O)(=O)CCC(=O)Nc3cc(Cl)ccc3F)n(C)c2n(C)c1=O
793 s | CCCN1C(=O)C2(c3ccccc31)c1[nH]c3ccccc3c1CCN2C(=O)NCC (configuration not stated)
918 s | COC(=O)C1=C(C)NC2=C(C(=O)c3ccccc32)C1c1cccs1 (configuration not stated)
953 s | c1ccc(-c2nc3nc4c(c(Nc5ccc6c(c5)OCO6)n3n2)CCCC4)cc1
848 s | Cc1ccc(C)c(CNC(=O)c2c(C)sc3ccn(C)c(=O)c23)c1
1120 s | COc1cccc(-c2noc(C3CCCN3C(=O)Nc3ccc(C)cc3Cl)n2)c1 (configuration not stated)
853 s | CC(c1ccccc1)N1CC(=O)N(c2ccc(Cl)cc2)[C@@H]2CS(=O)(=O)C[C@@H]21 (some centres not stated)
1040 s | CC1CCN(S(=O)(=O)c2ccc3nn(Cc4ccccc4Cl)c(=O)n3c2)CC1
568 s | COc1ccc(Nc2ncnc3[nH]ncc23)c(OC)c1
1200 s | Cc1ccc2c(c1)N(Cc1nc(-c3ccc(F)c(Cl)c3)no1)C(=O)CO2
629 s | O=C(NCC1CCCCC1)C1(CCO)CCN(c2ncccn2)C1 (configuration not stated)
853 s | COc1ccc(-c2cc(=O)n3c4ccccc4n(CC(=O)NC(C)C)c3n2)cc1

RP-LC retention time | SMILES
664 s | Cc1cc(SCC(N)=O)nc2ccccc12
892 s | O=C(CN1C(=O)CCCc2cc(S(=O)(=O)N3CCCC3)ccc21)Nc1ccc(Cl)cc1
956 s | Cn1cc(-c2nc(C(=O)N3CCN(c4ccccc4F)CC3)cs2)c2cccnc21
1110 s | COc1ccc(-c2noc(Cn3c(=O)n(C(C)C)c(=O)c4ccccc43)n2)cc1
860 s | Cn1cccc1C(=O)NCc1cnoc1-c1ccc(F)cc1
902 s | CCCc1noc(-c2ccc(=O)n(CC(=O)Nc3cc(C)cc(C)c3)c2)n1
832 s | COc1ccc(-c2cc3c4nnc(SCC(=O)NCc5ccc(SC)cc5)n4ccn3n2)cc1
926 s | CN(C)S(=O)(=O)c1ccc(-c2nnc(C(=O)NC3CCCCCC3)o2)cc1
793 s | CC(C)NC(=O)c1cccc(N2C(=O)NC3CC2(C)Oc2ccc(Br)cc23)c1 (configuration not stated)
595 s | CCC(C(=O)NCCN1CCN(CC)CC1)n1c2ccccc2c2cnn(C)c(=O)c21 (configuration not stated)
890 s | Cc1nnc(-c2cn(CC(=O)Nc3ccc(Br)cc3F)c3ccccc23)o1
978 s | COc1ccc(-c2nc(-c3ccc4oc(C)nc4c3)no2)cc1OC
546 s | Cc1cccc(NC(=O)N2CCc3[nH]cnc3C2c2ccncc2)c1C (configuration not stated)
620 s | Cc1cc(F)cc2c(=O)c3c([nH]c12)CCN(CC(=O)Nc1cccc(F)c1)C3
642 s | Cn1ncc(N2CCC(C(=O)Nc3ccc4oc(-c5ccncc5)nc4c3)C2)cc1=O (configuration not stated)
847 s | CCCn1nc(CNC(=O)Cc2ccsc2)c2ccccc21
647 s | O=S(=O)(c1ccc(Cl)cc1)N1CC(F)(F)C[C@H]1CN1CCc2ccccc2C1
679 s | Cn1cc(-c2ccncc2)cc1C(=O)N1CCN(c2cccc(Cl)c2)CC1
670 s | c1ccc(Nc2c(-c3ccc(N4CCOCC4)cc3)nc3ccccn23)cc1
583 s | CCC(=O)NCc1nc2c(n1CC)CN(S(=O)(=O)c1ccc(C)c(C)c1)CC2
644 s | Cn1c(=O)c(C(=O)NC2CC2)nc2ccccc21
853 s | Cc1ccc(NC(=O)Cn2nc3c(Oc4ccccc4C)nccn3c2=O)cc1
1010 s | COc1cccc(N2C(=O)N(Cc3cccc(F)c3)S(=O)(=O)c3cccnc32)c1

RP-LC retention time | SMILES
808 s | Cc1cccc(-n2cc(C(=O)OCc3cccnc3)c3ccccc3c2=O)c1
726 s | Cc1oc2ccn(Cc3ccccc3F)c(=O)c2c1C(=O)NCc1cccc(F)c1
873 s | CCn1cc(C2=CCN(C(=O)NCc3ccc(C)cc3)CC2)c2cccnc21
1290 s | Cc1ccc(-c2ocnc2C(=O)Nc2ccc(Br)cc2F)o1
1060 s | CCOC(=O)c1noc2nc(C)nc(Nc3cc(C)cc(C)c3)c12
624 s | CCCS(=O)(=O)Nc1cccc(-c2cn3cccc(C)c3n2)c1
1040 s | CCc1nc(-c2ccc(-c3noc(CNC(=O)c4ccc(C)cc4)n3)cc2)cs1
745 s | O=C(NCc1ccco1)C(=O)NCC1OCCN1S(=O)(=O)c1ccc([N+](=O)[O-])cc1 (configuration not stated)
655 s | O=C(NCc1[nH]nc2ccccc12)c1ccoc1
637 s | O=C(C1CCCCC1)N1CCC(F)(C(=O)NC2CC2)CC1
691 s | CCN1CCN(S(=O)(=O)c2ccc(-c3cc(C(F)(F)F)on3)o2)CC1
868 s | COc1cccc2nc3cc(C)c(C)cc3nc12
747 s | Cc1cc(C)n(-c2ccnc(NCC(C)C)n2)n1
781 s | CCc1cccc(C)c1Nc1c(-c2ccc(OC)cc2)nc2nc(C)cc(C)n12
809 s | Cc1nc(-c2ccc(OC3CCN(C(=O)NCC(C)C)C3)cc2)no1 (configuration not stated)
685 s | COc1ccc(-c2noc(C3(NC(=O)c4ccc(F)c(Cl)c4)CCCCC3)n2)cc1
643 s | Cc1noc(CNC(=O)Cc2ccc(F)cc2)n1
928 s | COc1ccc(-c2noc(C3CCCN3C(=O)Cc3ccsc3)n2)cc1 (configuration not stated)
745 s | O=C(Cn1ncc2c(c1=O)N(C1CC1)C(=O)CS2)N1CCCc2ccccc21
817 s | CC(C)NC(=O)c1nccnc1NC(=O)c1ccccc1
917 s | COc1ccc(N2CCN(C(=O)c3sc4ncccc4c3-n3cccc3)CC2)cc1
